The values that follow come from patent US8778939B2, “Compounds” (Glaxo Group Limited, priority 2009, dated 2014).

Holding throughout (type): biochemical
In experiment [1] the target is T1, 6His-Tev-LRRK2 (1326-2527) (Homo sapiens, UniProt Q5S007).
T1 construct: A LRRK2 cDNA encoding residues 1326-2527 was received from Dundee University; made in house; host or cells: Spodoptera frugiperda (Sf9) insect cells, baculovirus
T1 sequence (Q5S007 1326-2527): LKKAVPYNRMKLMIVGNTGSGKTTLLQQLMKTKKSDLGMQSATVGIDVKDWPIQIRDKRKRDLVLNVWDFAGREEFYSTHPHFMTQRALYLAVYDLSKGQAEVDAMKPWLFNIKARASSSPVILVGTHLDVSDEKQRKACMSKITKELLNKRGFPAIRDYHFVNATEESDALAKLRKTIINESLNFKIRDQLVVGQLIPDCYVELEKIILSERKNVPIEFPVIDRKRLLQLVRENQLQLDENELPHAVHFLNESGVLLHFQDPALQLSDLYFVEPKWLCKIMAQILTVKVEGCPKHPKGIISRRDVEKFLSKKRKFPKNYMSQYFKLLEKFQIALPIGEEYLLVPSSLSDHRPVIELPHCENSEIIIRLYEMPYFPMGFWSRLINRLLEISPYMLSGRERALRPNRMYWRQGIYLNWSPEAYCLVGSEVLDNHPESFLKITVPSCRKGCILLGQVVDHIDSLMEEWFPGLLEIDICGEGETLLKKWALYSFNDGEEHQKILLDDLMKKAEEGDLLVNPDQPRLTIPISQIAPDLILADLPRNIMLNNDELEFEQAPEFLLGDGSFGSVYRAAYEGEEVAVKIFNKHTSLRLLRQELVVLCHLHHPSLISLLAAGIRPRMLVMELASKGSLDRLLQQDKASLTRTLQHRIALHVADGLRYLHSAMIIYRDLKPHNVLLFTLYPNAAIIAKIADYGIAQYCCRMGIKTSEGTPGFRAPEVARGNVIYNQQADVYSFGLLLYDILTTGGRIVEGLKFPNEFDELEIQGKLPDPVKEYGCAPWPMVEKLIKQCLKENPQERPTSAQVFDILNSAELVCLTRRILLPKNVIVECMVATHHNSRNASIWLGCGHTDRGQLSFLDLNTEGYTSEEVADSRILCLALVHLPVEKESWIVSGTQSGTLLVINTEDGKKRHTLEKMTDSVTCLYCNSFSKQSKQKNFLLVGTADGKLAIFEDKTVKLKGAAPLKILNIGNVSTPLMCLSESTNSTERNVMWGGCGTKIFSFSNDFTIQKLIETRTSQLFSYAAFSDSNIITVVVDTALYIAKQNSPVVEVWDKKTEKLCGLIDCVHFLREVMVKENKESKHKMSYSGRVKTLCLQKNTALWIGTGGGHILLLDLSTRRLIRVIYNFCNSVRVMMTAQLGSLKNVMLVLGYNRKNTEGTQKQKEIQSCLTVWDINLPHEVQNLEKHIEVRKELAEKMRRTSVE
In words: LRRK2 AlphaScreen desensitised protein substrate assay. Conditions: excess of ATP present (2 mM ATP); read-out: pIC50 in the LRRK2 alphascreen desensitised protein substrate assay (converted). The method, boiled down: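 Purified 6His-Tev-LRRK2 (1326-2527), 80 nM in enzyme solution, in pH 7.2 Hepes buffer with MgCl2 and DTT; compound 1:4 dilutions, top final 30 μM. ATP 2 mM in substrate solution, 20 min at room temperature. Phospho-ERM (Thr567/564/558) detected by AlphaScreen.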
(In Alpha technology, singlet oxygen from a donor bead excites a nearby acceptor bead.)

Experiment [2] addresses T1, 6His-Tev-LRRK2 (1326-2527). The experiment is described as follows: LRRK2 peptide substrate assay. Conditions: Biotin-LRRKtide peptide substrate, ATP at Km; read-out: pIC50 in the LRRK2 peptide substrate assay (converted). In a few lines: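 Recombinant 6His-Tev-LRRK2 (1326-2527), 80 nM in enzyme solution, in pH 7.2 Hepes/MgCl2 buffer with DTT; compounds in 1:4 serial dilution from 30 μM top final. Reaction 1-2 h at room temperature, stopped with EDTA; phospho-moesin (Thr558) antibody with Eu/APC TR-FRET detection after 2 h (ex 330, em 620/665 nm).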

The target of experiment [3] is T1, 6His-Tev-LRRK2 (1326-2527). The experiment is described as follows: LRRK2 AlphaScreen protein substrate assay. Conditions: GST-PS-Moesin (400-577) substrate, ATP at Km; read-out: pIC50 in the LRRK2 alphascreen protein substrate assay (converted). On the procedure:
a) 100 nl of a 1:4 serial dilution of test compound with a top final assay concentration of 30 μM is added to certain wells in a low volume 384 well black plate. 100 nl of DMSO is used in certain wells as controls.
b) 3 μl enzyme solution (80 nM purified recombinant 6His-Tev-LRRK2 (1326-2527) in assay buffer: 50 mM Hepes (pH 7.2), 10 mM MgCl2, 150 mM NaCl, 5% glycerol, 0.0025% triton X-100 and 1 mM DTT) is added to certain wells.
Plates are then incubated for a further 1-2 hours at room temperature (incubation time varies depending upon rate and linearity of reaction with differing enzyme batches).
d) 6 μl detection solution (1:250 dilution of AlphaLisa Protein A Acceptor beads (PerkinElmer), 1:64 dilution of AlphaLisa Gluthathione Donor beads (PerkinElmer) and 1:600 dilution (dilution determined on a batch to batch basis) of Phospho-Ezrin (Thr567)/Radixin (Thr564)/Moesin (Thr558) Polyclonal Antibody (New England Biolabs) in a buffer: 50 mM Hepes (pH 7.5), 250 mM NaCl, 60 mM EDTA, 1% PEG and 0.01% Brij 35) is added to each well. Plates are then incubated for a further 2 hours at room temperature in the dark before reading on an EnVision™ plate reader with AlphaScreen HTS turbo option module and AlphaScreen settings. Data is analysed using ActivityBase software (IDBS).

Structures are written as SMILES.

Take `CC(C)c1ccc(OCc2ccccc2)c(C(=O)Nc2cccnc2)c1` [Example 1, 5-(1-Methylethyl)-2-[(phenylmethyl)oxy]-N-3-pyridinylbenzamide]: the IC50 in experiment [1] is at most 20 µM; in experiment [2], at most 0.1 µM; in experiment [3], at most 0.1 µM.

Turning to `O=C(Nc1cccnc1)c1cc(Br)ccc1OCc1ccccc1` [Example 2, 5-Bromo-2-[(phenylmethyl)oxy]-N-3-Pyridinylbenzamide], the IC50 is at most 20 µM in experiment [1], at most 0.1 µM in experiment [2] and at most 0.1 µM in experiment [3].

As for `N#Cc1ccc(OCc2ccccc2)c(C(=O)Nc2cccnc2)c1` [Example 8, 5-Cyano-2-[(phenylmethyl)oxy]-N-3-pyridinylbenzamide], the IC50 in experiment [1] is at most 20 µM; in experiment [2] it was at most 0.1 µM; in experiment [3] it was at most 0.1 µM.

Take `O=C(Nc1cccnc1)c1cc(Br)ccc1OCc1ccc(Cl)cc1` [Example 9, 5-Bromo-2-{[(4-chlorophenyl)methyl]oxy}-N-3-pyridinylbenzamide]: the IC50 was at most 20 µM in experiment [1], at most 0.1 µM in experiment [2] and at most 0.1 µM in experiment [3].

As to `O=C(Nc1cccnc1)c1cc(Br)ccc1OCc1cccc(Cl)c1` [Example 13, 5-Bromo-2-{[(3-chlorophenyl)methyl]oxy}-N-3-pyridinylbenzamide], the IC50 in experiment [1] was over 25.1 µM; in experiment [2], at most 0.1 µM; in experiment [3], at most 0.1 µM.

Consider `N#Cc1cccc(COc2ccc(Br)cc2C(=O)Nc2cccnc2)c1` [Example 15, 5-Bromo-2-{[(3-cyanophenyl)methyl]oxy}-N-3-pyridinylbenzamide], for which the IC50 in experiment [1] is over 25.1 µM; in experiment [2], at most 0.1 µM; in experiment [3], at most 0.1 µM.

For `COc1cccc(COc2ccc(Br)cc2C(=O)Nc2cccnc2)c1` [Example 18, 5-Bromo-2-({[3-(methyloxy)phenyl]methyl}oxy)-N-3-pyridinylbenzamide], the IC50 was over 25.1 µM in experiment [1] and at most 7.94 µM in experiment [3].

In the case of `CCc1cccc(NC(=O)c2cc(Br)ccc2OCc2ccccc2)c1` [Example 20, 5-Bromo-N-(3-ethylphenyl)-2-[(phenylmethyl)oxy]benzamide], the IC50 in experiment [1] is over 25.1 µM; in experiment [3], at most 7.94 µM.

With `COc1ccccc1COc1ccc(Br)cc1C(=O)Nc1cccnc1` [Example 21, 5-Bromo-2-({[2-(methyloxy)phenyl]methyl}oxy)-N-3-pyridinylbenzamide], the IC50 in experiment [1] was at most 20 µM; in experiment [3], at most 7.94 µM.

In the case of `O=C(Nc1ccccn1)c1cc(Br)ccc1OCc1ccccc1` [Example 22, 5-Bromo-2-[(phenylmethyl)oxy]-N-2-pyridinylbenzamide], the IC50 in experiment [1] and in experiment [3] was over 25.1 µM throughout.

Regarding `N#Cc1ccccc1COc1ccc(Br)cc1C(=O)Nc1cccnc1` [Example 23, 5-Bromo-2-{[(2-cyanophenyl)methyl]oxy}-N-3-pyridinylbenzamide], the IC50 in experiment [1] was at most 20 µM; in experiment [3], at most 7.94 µM.

Turning to `CNC(=O)c1cccc(NC(=O)c2cc(Br)ccc2OCc2ccccc2)c1` [Example 27, 5-Bromo-N-{3-[(methylamino)carbonyl]phenyl}-2-[(phenylmethyl)oxy]benzamide], the IC50 was over 25.1 µM in experiment [1] and at most 7.94 µM in experiment [3].

With `O=C(Nc1cccnc1)c1cc(O)ccc1OCc1ccccc1` [Example 29, 5-Hydroxy-2-[(phenylmethyl)oxy]-N-3-pyridinylbenzamide], the IC50 in experiment [1] is at most 20 µM; in experiment [2] it was at most 0.1 µM; in experiment [3] it was at most 0.1 µM.

As to `CN(C)CCOc1ccc(OCc2ccccc2)c(C(=O)Nc2cccnc2)c1` [Example 30, 5-{[2-(Dimethylamino)ethyl]oxy}-2-[(phenylmethyl)oxy]-N-3-pyridinylbenzamide], the IC50 is at most 20 µM in experiment [1], at most 0.1 µM in experiment [2] and at most 0.1 µM in experiment [3].

For the molecule `CN1CCC(Oc2ccc(OCc3ccccc3)c(C(=O)Nc3cccnc3)c2)CC1` [Example 31, 5-[(1-Methyl-4-piperidinyl)oxy]-2-[(phenylmethyl)oxy]-N-3-pyridinylbenzamide], the IC50 was at most 20 µM in experiment [1], at most 0.1 µM in experiment [2] and at most 0.1 µM in experiment [3].

Consider `CN1CCN(c2ccc(OCc3ccccc3)c(C(=O)Nc3cccnc3)c2)CC1` [Example 32, 5-(4-Methyl-1-piperazinyl)-2-[(phenylmethyl)oxy]-N-3-pyridinylbenzamide], for which the IC50 is at most 20 µM in experiment [1], at most 0.01 µM in experiment [2] and at most 0.1 µM in experiment [3].

Turning to `O=C(Nc1cccnc1)c1cc(N2CCCCC2)ccc1OCc1ccccc1` [Example 33, 2-[(Phenylmethyl)oxy]-5-(1-piperidinyl)-N-3-pyridinylbenzamide], the IC50 in experiment [1] was at most 20 µM; in experiment [2], at most 0.1 µM; in experiment [3], at most 0.1 µM.
